Source: patent publication US6608111B1, “Method for treating or preventing prostatic conditions” (Southern Illinois University Office of Research, …, priority 1998, dated 2003)

Tests used:
male Sprague-Dawley rats = assay: Example 4: effects on prostate and testis of male rats, 6 weeks; assay type: in vivo, rat; conditions: for Prostate Weight as % Body Weight / Seminal Vesicle Weight as % Body Weight / Testis Weight as % Body Weight / Body Weight (g): 0.1 ug/g of body weight once a day, mean ± SEM; for Body Weight (g): n = 10
Description: Sixty male Sprague-Dawley rats, 7-8 weeks of age, were randomly assigned to groups of ten animals. Each group was randomly assigned to one of six treatments: Vehicle control (C), Estradiol-17β(E), (−)-Z-BDDA, (+)-Z-BDDA, (−)-HAA, and (+)-HAA. The compounds were all administered at a dose of 0.1 μg/g of body weight in 0.1 cc once a day for 6 weeks. The estrogenic compounds were dissolved in 10% ethanol and 90% olive oil vehicle. A temperature of 21° C. and an artificial 12 h light-dark cycle were maintained in the animal room. All animals were maintained on standard chow in powdered form for six weeks, and then sacrificed after an overnight fast under i.p. pentobarbitol anesthesia (50 mg/kg). Animal weight was measured weekly during the study. During sacrifice, blood was collected via cardiac puncture. Immediately following sacrifice, the fat pads, livers, pituitaries, testes, seminal vesicles, and prostate were removed and weighed, and snap frozen in liquid nitrogen. Prostates and one testis from 2-3 animals in each treatment group were fixed in 10% formalin for histological examination. These tissues were fixed overnight, blocked in paraffin, sectioned at 4 μm, stained with Hematoxylin and Eodsin, cover slipped, and examined microscopically. Quantitative results were subjected to an analysis of variance and means separated by a Tukey's Test (SYSTAT, Chicago, Ill.).

mice = conditions: cited from earlier work
[1] = test system: MCF-7 human mammary cancer cell line; conditions: human MCF-7 cells in culture; cited from earlier work
[2] = test system: male and female Wistar rats; assay: Experiment 2: chronic treatment of male and female rats, 5-6 weeks; assay type: in vivo, rat; conditions: for Food intake: n = 5
Description: Twenty-five male and 25 female Wistar rats, 7-8 weeks of age, were randomly assigned to groups of five animals, respectively, for treatment with vehicle only (V), estradiol (E), (±)-Z-BDDA, (+)-Z-BDDA, or (−)-Z-BDDA. Each animal in group V received a daily 0.1 cc injection of a 10% ethanol-90% olive oil solution; the other treatments received their respective compound as a daily 0.1 cc injection, e.g., 2.5 μg of compound/g of body weight, in a 10% ethanol-90% olive oil solution. A temperature of 21° C. and an artificial 12-h light-dark cycle were maintained in the animal room. All animals were maintained on standard chow in powdered form, the males for five weeks and the females for six weeks, then sacrificed after an overnight fast under i.p. pentobarbital anesthesia (50 mg/kg). Animal weight and food intake were measured weekly during the study and subsequent FER values were determined. During sacrifice, blood was collected (via cardiac puncture) for glucose, luteinizing hormone, prolactin and testosterone measurements. The amounts of luteinizing hormone, prolactin and testosterone were measured to help elucidate the target tissue of the respective compounds in male and female rats. Immediately following sacrifice the fat pads and reproductive organs were removed and weighed.
Experiments 1 and 2 employed a randomized design. All data were analyzed by one-way analysis of variance (ANOVA,)and post-hoc comparisons were made with Tukey pairwise comparisons test. Significance was confirmed at p≦0.05 (SYSTAT 7.0, SPSS INC., 1997), and all values are reported as means±standard error of the mean.

[3] = test system: primary porcine granulosa cells; assay: In situ apoptosis assay in primary porcine granulosa cells; assay type: cell-based; conditions: 24 hr treatment, 0.1, 1 and 10 μM combined, serum-free MEM; controls 63.4% / 68.4%
Description: Porcine ovaries were obtained from local packing plants and transported to the laboratory on ice-cold Hank's balanced salt solution (HBSS). Each of the follicles was aspirated with an insulin syringe, and the follicular fluid was centrifuged at 3000 rpm and 4° C. for 15 min. The supernatant was poured off and the cells were washed in 5 mls of cold HBSS and centrifuged for another 10 min. The cells were again resuspended in HBSS, and the number of viable cells counted under the microscope using a hematocytometer. Once the number of cells was determined, the cells were centrifuged again for 10 min. and resuspended in the appropriate volume of Eagle's minimum essential media (MEM) containing 10% fetal bovine serum (FBS) and antibiotic/antimycotics. The cells were plated at 250,000 per well in 8 chamber microscope slides (Nunc, Naperville, Ill.) which were pre-treated with poly-L-lysine for 10 min. The slides were incubated at 5% CO2/95% air at 37° C. Approximately 12 hours later, the medium was removed by vacuum and replaced with pre-warmed, serum-free MEM. Cells were then treated for 2-3 hrs with MEM only to wash out any estrogen effects from the serum (Winters et al. (1994) Biol. Reprod. 50 (Suppl. 1):113; Suttner et al. (1998) Biol. Reprod. 59 (Suppl.): (Accepted for publication). Following serum-free MEM treatment, cells were treated for 24 hr with (+) or (−) enantiomers of Z-BDDA or estradiol at 0. 1, 1, and 10 μM, or EtOH vehicle control in serum-free MEM. Cells were subsequently processed using an in situ apoptosis assay kit (Apotag-Plus In Situ Apoptosis Kit-Peroxidase, Edition 1.1., Oncor, Gaithersburg, Md., 1995) to study ovarian apoptosis (Suttner et al., 1998). The slides were washed in two changes of PBS for 5 min each, and then quenched in 2% hydrogen peroxide in methanol for 5 min. at room temperature. After pre-treatment with an equilibration buffer, 13 ul of Terminal deoxynucleotidyl Transferase (TdT) diluted with reaction buffer and distilled water were added, and the slides were incubated for 1 h at 37° C. in a humidified chamber. After this 1 h period, the slides were put in pre-warmed stop wash buffer in the incubator for 30 min to stop the reaction. Next, the slides were washed in three changes of PBS for 5 min. each, and the anti-digoxigenin peroxidase was placed on the slides for 30 min. in a humidified chamber at room temperature. […] The degree of apoptosis for the calorimetric apoptosis assay was quantified microscopically using an image analysis system (Optimas 5.23, Optimas Users Guide, 5th Edition, Redmond, Wash.). Ten measurements (captured images) were taken for each concentration based on a pre-determined grid. […] Percentage area of each color was then quantitated using the image analysis system. […]

dialyzed LDL = assay: Oxidized LDL lag time assay (antioxidant capacity); design: species or system human; conditions: 3 μM Cu2SO4, drugs at 10^−4, 10^−5, 10^−6, and 10^−7 M
Description: Experiments were carried out on dialyzed LDL collected from four fasted persons. The LDL was used within 10 days of dialysis. The oxidizing agent was 3 μM […]; phosphate buffered saline was used to control pH, and all drugs were dissolved in ethanol; final concentrations of each drug in the assays were 10^−4, 10^−5, 10^−6, and 10^−7 M. The combined results are shown in FIG. 6.

[4] = test system: rats, cats, chicks, and guinea pigs; conditions: animals including rats; cited from earlier work
[5] = female rats, 2.5 ug/g of body weight daily, six weeks, mean ± SEM
[6] = male rats, 2.5 ug/g of body weight daily, five weeks, mean ± SEM

Compound | testis histology: spermatogenesis (male Sprague-Dawley rats; 0.1 μg/g daily, FIGS. 5a-f) | Prostate Weight as % Body Weight (male Sprague-Dawley rats) | Seminal Vesicle Weight as % Body Weight (male Sprague-Dawley rats) | Testis Weight as % Body Weight (male Sprague-Dawley rats) | Body Weight (g) (male Sprague-Dawley rats) | antioxidant activity (shift in lag time of LDL oxidation) (dialyzed LDL) | also measured
CC[C@H](c1ccc2cc(O)ccc2c1)C(C)(C)C(=O)O [(+)-HAA] | halted at round spermatid, with a few spermatogenic cells showing elongation (acrosome phase) | 0.08 ± 0.01^1 % Body Weight | 0.10 ± 0.04 % Body Weight | 0.38 ± 0.02^1,4 % Body Weight | 196.2 ± 5.2^1,4,5 g | – | effect on sulfate incorporation and weight gain (mice): significant depression of sulfate incorporation without the corresponding effects on weight gain
CC[C@@H](c1ccc2cc(O)ccc2c1)C(C)(C)C(=O)O [(−)-HAA] | halted at round spermatid, with a few reaching cap phase | 0.08 ± 0.01^1 % Body Weight | 0.04 ± 0.00^1,4 % Body Weight | 0.31 ± 0.01^1,4 % Body Weight | 180.9 ± 4.5^1,2,4 g | – | prostate histology (alveoli) (male Sprague-Dawley rats; 0.1 μg/g daily, FIGS. 4a-f): largest degree of atrophy; MCF-7 cell proliferation (estrogenicity) [1]: highly effective; activity in inhibition of weight gain and sulfate incorporation, relative to compound 2 (mice): 100 fold
CC[C@@H]1c2ccc3cc(O)ccc3c2CC[C@]1(C)C(=O)O [(−)-Z-BDDA, (−)-Z-bisdehydrodoisynolic acid] | halted primarily at the secondary spermatocyte phase | 0.08 ± 0.00^1 % Body Weight | 0.06 ± 0.02^4 % Body Weight | 0.31 ± 0.02^1,4 % Body Weight | 166.5 ± 4.5^1,2,4 g | significant antioxidant activity | Uterus/testis weight (g) ([2]; female rats (uterus), 2.5 ug/g of body weight daily, six weeks, mean ± SEM): 1.44 ± 0.34^2,3,4 g; Blood glucose [2, 5]: 95.00 ± 8.33 mg/dL; FER (food efficiency ratio) [2, 5]: 0.011 ± 0.005^1,2; Food intake [2, 5]: 675.2 ± 37.9 g; weight gain (percent weight change) ([2]; female rats, both experiments (FIGS. 2 and 3), 2.5 μg/g daily): repress weight gain slightly more than did (+)-Z-BDDA and E2; Uterus/testis weight (g) ([2]; male rats (testis), 2.5 ug/g of body weight daily, five weeks, mean ± SEM): 0.57 ± 0.04^1 g; testosterone ([2]; male rats, 2.5 μg/g daily, compared to the vehicle): less pronounced; Blood glucose (mg/dl) [2, 6]: 88.00 ± 2.00^1 mg/dl; FER (food efficiency ratio) [2, 6]: −0.01 ± 0.01^1; Prostate weight (g) [2, 6]: 0.03 ± 0.10^1 g; Food intake [2, 6]: 650.0 ± 54.3 g; mean apoptosis (% area) [3]: 26.1%; testis histology: Leydig cells (male Sprague-Dawley rats; 0.1 μg/g daily, FIGS. 5a-f): severely atrophied Leydig cells, the smallest of all the treatments
CC[C@H](c1ccc2cc(OC)ccc2c1)C(C)(C)C(=O)O [compound 3] | – | – | – | – | – | – | estrogenic activity (estrogenicity) in animals [4]: one-fifth the estrogenicity of 2
O=c1c(-c2ccc(O)cc2)coc2cc(O)ccc12 [daidzein] | – | – | – | – | – | Less antioxidant activity | –
O=c1c(-c2ccc(O)cc2)coc2cc(O)cc(O)c12 [genistein] | – | – | – | – | – | Less antioxidant activity | –
